Source: patent publication US20220127297A1, “Novel Antibacterial 3"-Derivatives Of 4,6-Disubstituted 2,5-Dideoxystreptamine Aminoglycoside Antibiotics” (AGILeBiotics B.V., priority 2018, published 2022)
Where two headings read alike, the source gives them in different places.

Tests used:
[1] = Maximum tolerated dose (MTD) / acute toxicity study, IV; type: in vivo; conditions: for MTD at 4 days / LD50 at 4 days: male, CD (Sprague Dawley), rat, in vivo, iv; for LD50 at 4 days / LD50: rats, one-time IV dose over 15 min
Description: 4.4 Maximum Tolerated Dose (MTD) Study in Male CD (Sprague Dawley) Rats.
The study was performed in an AAALAC I—approved Facility. The standard study plan relating to this study was reviewed by the Ethical Committee (CARE-Zagreb) as required by International Laws/Regulations and Croatian Low on Animal Welfare (“The Animal Protection Act”, Official Gazette, NN 37/13) and Animal Welfare Officer.
In vivo studies were performed by Fidelta (Zagreb, Croatia) and all rats (Sprague Dawley) were obtained from Charles River Laboratories (Italy). Three compounds, i.e. ABX5006, ABX5020 and ABX5039 were tested to determine the MTD of the test articles in male CD (Sprague Dawley) rats following a one-time dose (IV).
MTD study: Pathogen-free male CD (Sprague Dawley) rats (3 rats per dosing group) weighing 225-260 g were used. Five different dosing groups (50 mg/kg, 75 mg/kg, 100 mg/kg, 150 mg/kg and 200 mg/kg) were used and the test article was administered intravenous over 15 min (slow injection, 5 mL/kg). […] Clinical signs, body weight, food consumption and mortality was recorded during the in-life phase of the study. All animals surviving to the end of the 4 day monitoring period were euthanized on day 4. Terminal studies included gross necropsy and organ weight recording of all animals.
Supplies/Chemicals. Sterile, single used needles (25 G Microlance, REF300400, Becton Dickinson); 2 mL syringes (REF300185, Becton Dickinson); Phosphate buffered saline (P3813, Sigma Aldrich); isoflurane anesthesia (Abbott, Netherlands)
Anesthesia. Animals were deeply anaesthetized using isoflurane and subsequently exsangunated for full post mortem examination.

[2] = system: Klebsiella pneumoniae ATCC BAA-1705; conditions: for Avg. Log CFU/g thigh: BID; for decrease in CFU number in thighs in comparison to the vehicle control group: doses of 16 and 64 mg/kg (SC, BID)
Description: 4.2 Murine Neutropenic Thigh Model of Infection (Kiebsiella Pneumoniae ATCC BAA-1705)
All animal-related research is conducted in accordance with 2010/63/EU and National legislation regulating the use of laboratory animals in scientific research and for other purposes (Official Gazette 55/13).
In vivo studies and CFU determination were performed by Fidelta (Zagreb, Croatia) and all mice were obtained from Charles River Laboratories (Italy).
Two compounds, i.e. ABX5006 and ABX5020, and a comparator antibiotic (amikacin sulfate; Cat. No. 01693, Chem-Impex) were tested in a mouse model of thigh infection with Klebsiella pneumoniae ATCC BAA-1705.
Neutropenic thigh model: Pathogen-free male CD-1 mice (6 mice per dosing group) weighing 36±4 g were used. Prior to infection, neutropenia was induced in mice by two cyclophosphamide doses applied intraperitoneally four days (150 mg/kg body weight) and one day prior to infection (100 mg/kg body weight). […] For subcutaneous treatment, pre-weighed test item powder (ABX5006) was dissolved in PBS and the pH was adjusted (to reach a near-neutral pH), to reach a final concentration of 6.4 mg/mL for a dose of 64 mg/kg (group 3) or 1.6 mg/mL for a dose of 16 mg/kg (group 2). For subcutaneous treatment, pre-weighed test item powder (ABX5020) was dissolved in PBS and the pH was adjusted (to reach a near-neutral pH), to reach a final concentration of 6.4 mg/mL for a dose of 64 mg/kg (group 7) or 1.6 mg/mL for a dose of 16 mg/kg (group 6). For subcutaneous treatment, pre-weighed reference compound (amikacin sulfate) was dissolved in PBS and the pH was adjusted (to reach a near-neutral pH), to reach a final concentration of 6.4 mg/mL for a dose of 64 mg/kg (group 5) or 1.6 mg/mL for a dose of 16 mg/kg (group 4). Each mouse was infected with Klebsiella pneumoniae ATCC BAA-1705 (1.18×10^6/thigh), under light ketamine/xylazine anesthesia, by intramuscular administration of 0.10 mL of a suspension containing bacteria into both thighs. Animals were dosed subcutaneously twice with 8 h interval. Treatment was started 1 h following infection either with Vehicle—PBS (group 1) or amikacin sulfate (groups 4-5) or test compounds (groups 2-3 and 6-7) as described above. All Mice were overdosed with ketamine/xylazine 24 hours post infection. Thighs were aseptically removed and separately placed into sterile Precellys test tubes containing 2 mL of sterile PBS. Precellys test tubes were weighed and the weight was recorded prior and post-sampling. Each thigh was homogenized in sterile PBS using Ultraturax, IKA. After homogenizing, a serial dilution of the homogenates was used for CFU determination. A CFU count of each thigh acted as a single result.
Supplies/Chemicals. BBL™ Mueller Hinton Broth (REF 275730, Becton Dickinson); BBL™ Mueller Hinton Agar 2 (REF 211438, Becton Dickinson); PBS (Cat. No. P4417, Sigma); Saline (Serial No. 1422115, HZ™); Xylazine 2% (Alfasan, International B.V.); Narkamon (100 mg/mL ketamine chloride, Bioveta); Cyclophosphamide monohydrate (No. C2236, TCI); Sterile, single use needles (BD MICROLANCE Kanuele, 27 G, REF 300220, Becton Dickinson); 5 mL syringes (BD Plastipak, REF 300013, Becton Dickinson).
Anesthesia. 1 mL of Narkamon, 0.2 mL of Xylazine and 9 mL of saline; Dose volume: 10 mL/kg body weight.
Inoculum preparation for intramuscular infection. The strain was streaked out onto MH agar. On the following day Mueller-Hinton broth was inoculated with several colonies of Klebsiella pneumoniae and incubated at 37° C. in an orbital shaker until log phase of growth was reached (OD600=0.6). Log bacteria was centrifuged and suspended in equal volume of sterile PBS and subsequently diluted to obtain a bacterial suspension of adequate inoculum size.

SMILES	MTD at 4 days [1] [mg/kg]	LD50 at 4 days [1] [mg/kg]	LD50 [1] [mg/kg]	Avg. Log CFU/g thigh ([2]; dose 16 mg/kg, SC) [Log CFU/g]	Avg. Log CFU/g thigh ([2]; dose 64 mg/kg, SC) [Log CFU/g]	decrease in CFU number in thighs in comparison to the vehicle control group [2]	animals euthanized prior to second dose due to weak clinical condition ([2]; infected neutropenic mice, SC)
N=C(N)NC1C(O)[C@@H](CO)OC(OC2C(F)[C@H](O[C@H]3OC(CN)[C@@H](O)CC3N)C(N)C[C@H]2NC(=O)[C@@H](O)CCN)[C@@H]1O (stereo partly drawn) [ABX5006, Tobra-AHB-F-Gua]	150	> 200	>200	6.08	5.69	2.8-3.2 log 10	–
N=C(NCCN)NC1C(O)[C@@H](CO)OC(OC2C(F)[C@H](O[C@H]3OC(CN)[C@@H](O)CC3N)C(N)C[C@H]2NC(=O)[C@@H](O)CCN)[C@@H]1O (stereo partly drawn) [ABX5020, Tobra-AHB-F-Gua-2-amino-ethyl]	–	–	–	6.18	5.29	2.7-3.6 log 10	Two animals
N=C(NC[C@@H]1CCCN1)NC1[C@@H](O)C(OC2[C@@H](F)[C@H](O[C@H]3OC(CN)[C@@H](O)CC3N)C(N)C[C@H]2NC(=O)[C@@H](O)CCN)O[C@H](CO)[C@H]1O (stereo partly drawn) [ABX5026, Tobra-AHB-F-Gua (S) pyrrolidine-2-yl-methyl]	75	> 75	–	–	–	–	–
N=C(NC[C@@H]1CCNC1)NC1[C@@H](O)C(OC2[C@@H](F)[C@H](O[C@H]3OC(CN)[C@@H](O)CC3N)C(N)C[C@H]2NC(=O)[C@@H](O)CCN)O[C@H](CO)[C@H]1O (stereo partly drawn) [ABX5039, Tobra-AHB-F-Gua (R) pyrrolidine-3-ylmethyl]	75	> 75	75 to 100	–	–	–	–
NCC[C@H](O)C(=O)N[C@@H]1C[C@H](N)[C@@H](O[C@H]2O[C@H](CN)[C@@H](O)[C@H](O)[C@H]2O)[C@H](O)[C@H]1O[C@H]1O[C@H](CO)[C@@H](O)[C@H](N)[C@H]1O [Amikacin, amikacin, reference compound]	–	–	–	8.19	7.24	did not significantly decrease CFU counts in thighs	–
